Measurements published in ChEMBL document CHEMBL3045099, “Action mechanism of isoxazoline-type herbicides” (J Pestic Sci, 2012).

Assays:
Echinochloa crus-galli [1] = assay: Ratio of I50 for very long-chain fatty acid elongase in Echinochloa crus-galli (barnyard grass) to EC50 for shoot elongation inhibition in Echinochloa crus-galli (barnyard grass)
Echinochloa crus-galli [2] = assay: Inhibition of shoot elongation in Echinochloa crus-galli (barnyard grass); assay type: functional, organism-based
[3] = Inhibition of Very long-chain fatty acid elongase in Echinochloa crus-galli (barnyard grass); conditions: read-out: I50

Row | Structure (SMILES) | Ratio (Echinochloa crus-galli [1]) | EC50 (Echinochloa crus-galli [2]) [µM] | IC50 [3] [µM]
1 | CCOc1cc(Cl)c(CS(=O)(=O)C2=NOC(C)(C)C2)cc1Cl [FENOXASULFONE] | 10 | 0.03 | 0.3
2 | Cn1nc(C(F)(F)F)c(CS(=O)(=O)C2=NOC(C)(C)C2)c1OC(F)F [PYROXASULFONE] | 10 | 0.03 | 0.3
